Test results: US10420734B2, “Method of treating cancer using selective estrogen receptor modulators” (Duke University, priority 2014, dated 2019)

Tested on: MCF7 xenograft tumors
Experiment: MCF7 xenograft tumor study after estrogen pellet removal
Format: in vivo, mice
Description: Xenograft tumor analysis: Estrogen-stimulated MCF7 tumors were initiated in the axial mammary gland of 6-week old estrogen-treated (0.72 mg/60 days pellet sc, Innovative Research of America) ovariectomized female NU/NU mice (in-house colony) by serial transfer and were measured as described (Wardell et al., (2013) Clin Cancer Res 19 (9):2420-2431). […] FIG. 9: At ˜0.1 cm^3 tumor volume, the estrogen pellet was surgically removed, and mice were randomized (n=6-10) to daily treatment with vehicle or RAD1901 (0.3-10 mg/kg). Treatments were formulated as above. Animal tissues were processed and analyzed as described (Wardell et al., (2013) Clin Cancer Res 19 (9):2420-2431).
As shown above, high dose RAD1901 (20 mg/kg) inhibited the growth of ESR1-dependent MCF7-cell derived tumors in mice. However, the observation that uterine wet weight was increased in mice treated with doses of RAD1901 that were lower than that required to effect ESR1 turnover highlighted the need to examine whether a similar biphasic pharmacology was manifest in breast tumors. To further evaluate the pharmacology of RAD1901, a second xenograft tumor study was conducted in which MCF7 tumors were established under estrogen stimulation. For FIG. 9A, MCF7 xenograft tumors were initiated in ovariectomized female nu/nu mice as in FIG. 5. Estrogen pellets were surgically removed when tumors reached ˜0.1 cm^3 volume, and animals (n=6-10) then received daily treatment with vehicle or RAD1901 (RAD), (0.3-10 mg/kg sc). Mean tumor volume+/−SEM per day of treatment was presented. Significance as compared to the vehicle (2-way ANOVA of matched values followed by Bonferroni comparison) was indicated (*p<0.05, **p<0.0005). For FIG. 9B, uterine wet weight at sacrifice (measured as in FIG. 8) and % change in tumor volume (as compared to size at randomization) calculated using the final measurement recorded for mice in (FIG. 9A) are graphically presented. For FIGS. 9C-9D, expression of ESR1 target genes in tumors was analyzed essentially as in FIG. 5. Estrogen only samples from FIG. 5D were included for comparison. For FIG. 9E, ESR1 levels in tumor tissues were analyzed as in FIG. 8 and were normalized to similarly detected Lamin-A. Significant downregulation (*p<0.05) was determined by ANOVA followed by Bonferroni comparison.

CCNCCc1ccc(CN(CC)c2cc(OC)ccc2[C@@H]2CCc3cc(O)ccc3C2)cc1 [RAD1901, (R)-6-{2-{ethyl[4-(2-ethylaminoethyl)benzyl]amino}-4-methoxyphenyl}-5,6,7,8-tetrahydronaphthalen-2-ol]
ESR1 levels in tumor extracts (immunoblot) (0.3-10 mg/kg): dose-dependent downregulation | final tumor size (1 or 3 mg/kg groups): significantly increased | tumor growth after estrogen withdrawal (1 or 3 mg/kg sc daily): significant stimulation of tumor growth | expression of AGR2 in tumors (1 or 3 mg/kg treatment groups): observed | expression of classical ESR1 target genes such as PGR in tumors (1 or 3 mg/kg treatment groups): not observed | tumor growth after estrogen withdrawal (higher dose (10 mg/kg) sc daily): not apparent at the higher dose | uterine wet weight at sacrifice (nu/nu mice, 0.3-10 mg/kg sc daily): stimulation of uterine weight was apparent in mice treated with only the 0.3 mg/kg dose
